A value given as a limit tells only on which side of the number the result lay.

Here are results for 26 molecules from patent US8178552B2, “7-Azaindole derivatives and their use in the inhibition of c-Jun N-terminal kinase” (Eisai R&D Management Co., Ltd., priority 2008, dated 2012).

One experiment deals with JNK3 (Homo sapiens, UniProt P53779). Put plainly: JNK3 SPA assay. In kind it is biochemical. The note with it: 3.33 μM ATP, GST-c-Jun substrate; read-out: IC50 against JNK3. In a few lines: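 Radiometric SPA using GST-c-Jun with [γ-33P]ATP in 25 mM HEPES pH 7.5 and 10 mM Mg acetate; the substrate solution held 3.33 µM ATP (JNK2/3) or 2 µM ATP (JNK1). Reactions ran 30 min at room temperature and were stopped with glutathione SPA beads plus 40 mM ATP. IC50 is the concentration halving c-Jun phosphorylation versus control.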
Chain of JNK3 (P53779 whole entry, species assumed): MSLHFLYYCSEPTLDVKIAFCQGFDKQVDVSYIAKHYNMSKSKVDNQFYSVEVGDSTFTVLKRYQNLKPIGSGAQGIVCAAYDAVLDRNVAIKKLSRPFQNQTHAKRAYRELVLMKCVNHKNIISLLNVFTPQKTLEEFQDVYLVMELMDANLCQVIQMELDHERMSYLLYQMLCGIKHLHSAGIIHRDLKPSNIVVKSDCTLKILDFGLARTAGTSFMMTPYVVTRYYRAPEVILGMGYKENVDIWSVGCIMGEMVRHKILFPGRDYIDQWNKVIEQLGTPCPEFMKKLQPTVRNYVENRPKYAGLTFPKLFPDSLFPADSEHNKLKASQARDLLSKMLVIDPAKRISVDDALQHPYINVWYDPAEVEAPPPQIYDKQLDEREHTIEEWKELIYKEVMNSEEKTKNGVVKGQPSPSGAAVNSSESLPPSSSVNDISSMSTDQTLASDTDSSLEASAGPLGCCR

Another experiment has as its system TNFα. Put plainly: LPS-induced TNFα suppression in mice (plasma TNFα, ELISA). The note with it: Mus musculus, po; 20 mg/kg p.o. 30 min before LPS 10 mg/kg i.p.; 1 hour after LPS; versus vehicle-treated animals; read-out: Percentage reduction in the level of TNFα in plasma. The experiment is classed as in vivo, male C57/B16 mice. The protocol:
(§1) The studies were carried out in male C57/B16 mice. Compounds (20 mg/kg; p.o.) were administered 30 minutes before injection of lipopolysaccharide (LPS). LPS was administered intraperitoneally at a dose of 10 mg/kg. Animals were sacrificed 1 hour following LPS injection. Blood was collected into heparinized tubes for measurement of plasma TNFα levels and spleens were collected for the measurement of c-Jun phosphorylation. Plasma TNFα was measured using an ELISA kit purchased from R&D systems. Spleens were homogenised, extracted in high salt (250 mM NaCl) lysis buffer with phosphatase inhibitors and c-Jun phosphorylation was measured using HTRF. The suppressive effect of compounds was calculated as the percentage reduction of the TNFα level in plasma and P-c-Jun level in spleen as compared with the vehicle-treated animals.

In a further experiment the test system is c-Jun phosphorylation. Briefly: LPS-induced c-Jun phosphorylation in spleen of mice (HTRF). In kind it is in vivo, male C57/B16 mice. The conditions noted are these: Mus musculus, po; 20 mg/kg p.o. 30 min before LPS 10 mg/kg i.p.; 1 hour after LPS; versus vehicle-treated animals; read-out: Percentage reduction in the level of P-c-Jun in spleen. The protocol: as §1

Regarding `CC1CCC(c2cnc3[nH]cc(-c4cnn(C)c4)c3c2)CC1` (mixture of isomers) [Compound I-3, 3-(1-methyl-1H-pyrazol-4-yl)-5-(4-methylcyclohexyl)-1H-pyrrolo[2,3-b]pyridine], on JNK3, the IC50 turned out to be 58 nM. Also, the values for the inhibition in vivo at 20 mg/kg with TNFα and in the experiment with c-Jun phosphorylation were 60% and 0%, respectively.

`Cn1cc(-c2c[nH]c3ncc([C@H]4CC[C@@H](N5CCOCC5)CC4)cc23)cn1` [Compound I-7, 4-((1s,4s)-4-(3-(1-methyl-1H-pyrazol-4-yl)-1H-pyrrolo[2,3-b]pyridin-5-yl)cyclohexyl)morpholine]: the IC50 on JNK3 amounted to 60 nM. In addition, the results for the inhibition in vivo at 20 mg/kg in the experiment with TNFα and in the experiment on c-Jun phosphorylation were 63% and 18%, respectively.

As to `Cn1cc(-c2c[nH]c3ncc(C4=CCCC4)cc23)cn1` [Compound I-10, 5-cyclopentenyl-3-(1-methyl-1H-pyrazol-4-yl)-1H-pyrrolo[2,3-b]pyridine], at JNK3, the IC50 came to 17 nM. The inhibition in vivo at 20 mg/kg was determined as 62% with TNFα and 75% with c-Jun phosphorylation.

For the molecule `Cn1cc(-c2c[nH]c3ncc(C4CCCCC4)cc23)cn1` [Compound I-16, 5-cyclohexyl-3-(1-methyl-1H-pyrazol-4-yl)-1H-pyrrolo[2,3-b]pyridine], the IC50 on JNK3 is 40 nM. Further, the inhibition in vivo at 20 mg/kg with TNFα was 45%; in the experiment with c-Jun phosphorylation, 20%.

Take `Cn1cc(-c2c[nH]c3ncc(C4CCC5(CC4)OCCO5)cc23)cn1` [Compound I-19, 5-(1,4-Dioxa-spiro[4.5]dec-8-yl)-3-(1-methyl-1H-pyrazol-4-yl)-1H-pyrrolo[2,3-b]pyridine]: at JNK3, the IC50 was 25 nM. Besides, the inhibition in vivo at 20 mg/kg with TNFα came to 9%; with c-Jun phosphorylation, 32%.

Turning to `Cn1cc(-c2c[nH]c3ncc([C@H]4CC[C@@H](N5CCCC5)CC4)cc23)cn1` [Compound I-23, 3-(1-methyl-1H-pyrazol-4-yl)-5-((1s,4s)-4-(pyrrolidin-1-yl)cyclohexyl)-1H-pyrrolo[2,3-b]pyridine], the IC50 on JNK3 is 126 nM. Besides, the inhibition in vivo at 20 mg/kg with TNFα came out at 61%; with c-Jun phosphorylation it was 2%.

For `Cn1cc(-c2c[nH]c3ncc([C@H]4CC[C@H](N5CCCC5)CC4)cc23)cn1` [Compound I-24, 3-(1-methyl-1H-pyrazol-4-yl)-5-((1r,4r)-4-(pyrrolidin-1-yl)cyclohexyl)-1H-pyrrolo[2,3-b]pyridine], the IC50 on JNK3 amounted to 83 nM. Further, the inhibition in vivo at 20 mg/kg in the experiment with TNFα worked out at 57%; with c-Jun phosphorylation it was 23%.

For the molecule `CN1CCN([C@H]2CC[C@H](c3cnc4[nH]cc(-c5cnn(C)c5)c4c3)CC2)CC1` [Compound I-25, 3-(1-methyl-1H-pyrazol-4-yl)-5-((1r,4r)-4-(4-methylpiperazin-1-yl)cyclohexyl)-1H-pyrrolo[2,3-b]pyridine], the IC50 on JNK3 stood at 90 nM. The inhibition in vivo at 20 mg/kg was determined as 80% in the experiment on TNFα and 25% with c-Jun phosphorylation.

`CN1CCN([C@H]2CC[C@@H](c3cnc4[nH]cc(-c5cnn(C)c5)c4c3)CC2)CC1` [Compound I-26, 3-(1-methyl-1H-pyrazol-4-yl)-5-((1s,4s)-4-(4-methylpiperazin-1-yl)cyclohexyl)-1H-pyrrolo[2,3-b]pyridine]: the IC50 at JNK3 worked out at 94 nM. For the same molecule, the inhibition in vivo at 20 mg/kg in the experiment with TNFα was 71%; in the experiment on c-Jun phosphorylation it was 16%.

`CN1CCCN([C@H]2CC[C@H](c3cnc4[nH]cc(-c5cnn(C)c5)c4c3)CC2)CC1` [Compound I-37, 5-((1r,4r)-4-(4-methyl-1,4-diazepan-1-yl)cyclohexyl)-3-(1-methyl-1H-pyrazol-4-yl)-1H-pyrrolo[2,3-b]pyridine]: the half-inhibitory concentration (IC50) at JNK3 worked out at 69 nM. Further, the inhibition in vivo at 20 mg/kg in the experiment on TNFα was 51%; in the experiment with c-Jun phosphorylation, -3%.

As to `Cn1cc(-c2c[nH]c3ncc([C@H]4CC[C@@H](N5CCCOCC5)CC4)cc23)cn1` [Compound I-39, 4-((1s,4s)-4-(3-(1-methyl-1H-pyrazol-4-yl)-1H-pyrrolo[2,3-b]pyridin-5-yl)cyclohexyl)-1,4-oxazepane], the IC50 on JNK3 stood at 184 nM. The inhibition in vivo at 20 mg/kg in the experiment on TNFα is 67%; in the experiment with c-Jun phosphorylation, 10%.

In the case of `Cn1cc(-c2c[nH]c3ncc([C@H]4CC[C@H](N5CCCOCC5)CC4)cc23)cn1` [Compound I-40, 4-((1r,4r)-4-(3-(1-methyl-1H-pyrazol-4-yl)-1H-pyrrolo[2,3-b]pyridin-5-yl)cyclohexyl)-1,4-oxazepane], on JNK3, the IC50 turned out to be 129 nM. Also, the inhibition in vivo at 20 mg/kg in the experiment with TNFα was determined as 61%; with c-Jun phosphorylation it was 35%.

As to `CC(C)N1CCN([C@H]2CC[C@H](c3cnc4[nH]cc(-c5cnn(C)c5)c4c3)CC2)CC1` [Compound I-43, 5-((1r,4r)-4-(4-isopropylpiperazin-1-yl)cyclohexyl)-3-(1-methyl-1H-pyrazol-4-yl)-1H-pyrrolo[2,3-b]pyridine], at JNK3, the IC50 stood at 117 nM. Further, the inhibition in vivo at 20 mg/kg in the experiment with TNFα was 74%; in the experiment with c-Jun phosphorylation, 0%.

For `Cn1cc(-c2c[nH]c3ncc(C4=CC5CC(=O)CC(C4)C5)cc23)cn1` (stereo not shown) [Compound I-145, 7-(3-(1-methyl-1H-pyrazol-4-yl)-1H-pyrrolo[2,3-b]pyridin-5-yl)bicyclo[3.3.1]non-6-en-3-one], the IC50 on JNK3 was 167 nM.

Turning to `Cn1cc(-c2c[nH]c3ncc(C4=CC5CC(O)CC(C4)C5)cc23)cn1` (stereo not shown) [Compound I-146, 7-(3-(1-methyl-1H-pyrazol-4-yl)-1H-pyrrolo[2,3-b]pyridin-5-yl)bicyclo[3.3.1]non-6-en-3-ol], on JNK3, the IC50 amounted to 832 nM.

Regarding `Cn1cc(-c2c[nH]c3ncc(C4=CC5CC(O)CC(C4)C5)cc23)cn1` (stereo not shown) [Compound I-147, 7-(3-(1-methyl-1H-pyrazol-4-yl)-1H-pyrrolo[2,3-b]pyridin-5-yl)bicyclo[3.3.1]non-6-en-3-ol], on JNK3, the IC50 was > 1000 nM.

For the molecule `CN1CCN(C2CC3C=C(c4cnc5[nH]cc(-c6cnn(C)c6)c5c4)CC(C3)C2)CC1` (stereo not drawn) [Compound I-149, trans-3-(1-methyl-1H-pyrazol-4-yl)-5-(7-(4-methylpiperazin-1-yl)bicyclo[3.3.1]non-2-en-3-yl)-1H-pyrrolo[2,3-b]pyridine], the IC50 at JNK3 is > 500 nM.

`CN1C2CC3CC(C2)C(O)C1(c1cnc2[nH]cc(-c4cnn(C)c4)c2c1)C3` (stereo not shown) [Compound I-153]: the IC50 at JNK3 came to 288 nM.

In the case of `Cn1cc(-c2c[nH]c3ncc([C@@H]4C[C@H]5O[C@@H]4CC5C#N)cc23)cn1` (stereo partly drawn) [Compound I-157, (1R,4R,5S)-5-(3-(1-methyl-1H-pyrazol-4-yl)-1H-pyrrolo[2,3-b]pyridin-5-yl)-7-oxabicyclo[2.2.1]heptane-2-carbonitrile], on JNK3, the IC50 is 295 nM.

`Cn1cc(-c2c[nH]c3ncc([C@]4(F)CC[C@@H](N5CCOCC5)CC4)cc23)cn1` [Compound I-162, 4-((1s,4s)-4-fluoro-4-(3-(1-methyl-1H-pyrazol-4-yl)-1H-pyrrolo[2,3-b]pyridin-5-yl)cyclohexyl)morpholine]: the IC50 on JNK3 was > 2000 nM.

As for `CO[C@]1(c2cnc3[nH]cc(-c4cnn(C)c4)c3c2)CC[C@H](N2CCOCC2)CC1` [Compound I-163, 4-((1s,4s)-4-methoxy-4-(3-(1-methyl-1H-pyrazol-4-yl)-1H-pyrrolo[2,3-b]pyridin-5-yl)cyclohexyl)morpholine], the half-maximal inhibitory concentration (IC50) at JNK3 stood at 1480 nM.

For the molecule `Cn1cc(-c2c[nH]c3ncc(C4=C[C@H]5O[C@@H]4C[C@H]5C#N)cc23)cn1` [I-155 endo, (1R,2S,4R)-5-(3-(1-methyl-1H-pyrazol-4-yl)-1H-pyrrolo[2,3-b]pyridin-5-yl)-7-oxabicyclo[2.2.1]hept-5-ene-2-carbonitrile], on JNK3, the IC50 was determined as 174 nM.

Turning to `Cn1cc(-c2c[nH]c3ncc(C4=C[C@H]5O[C@@H]4C[C@@H]5C#N)cc23)cn1` [I-155 exo, (1R,2R,4R)-5-(3-(1-methyl-1H-pyrazol-4-yl)-1H-pyrrolo[2,3-b]pyridin-5-yl)-7-oxabicyclo[2.2.1]hept-5-ene-2-carbonitrile], at JNK3, the IC50 worked out at 219 nM.

In the case of “Mixture of 3-(1-methyl-1H-pyrazol-4-yl)-5-(3,5,5-trimethylcyclohex-1-enyl)-1H-pyrrolo[2,3-b]pyridine and 3-(1-methyl-1H-pyrazol-4-yl)-5-(3,3,5-trimethylcyclohex-1-enyl)-1H-pyrrolo[2,3-b]pyridine [Compound I-68]”, the IC50 at JNK3 was 760 nM.

Turning to “Mixture of 3-(1-methyl-1H-pyrazol-4-yl)-5-(5-methylcyclohex-1-enyl)-1H-pyrrolo[2,3-b]pyridine and 3-(1-methyl-1H-pyrazol-4-yl)-5-(3-methylcyclohex-1-enyl)-1H-pyrrolo[2,3-b]pyridine [Compound I-29]”, the IC50 at JNK3 stood at 98 nM.

Turning to “Mixture of 3-(1-methyl-1H-pyrazol-4-yl)-5-(6-methylcyclohex-1-enyl)-1H-pyrrolo[2,3-b]pyridine and 3-(1-methyl-1H-pyrazol-4-yl)-5-(2-methylcyclohex-1-enyl)-1H-pyrrolo[2,3-b]pyridine [Compound I-30]”, at JNK3, the 50% inhibitory concentration (IC50) was 170 nM.
